Several values for one entry are separate records, joined by “and”; a condition that tells them apart may be missing. Equal entries are not always repeated.
Target: T1, human 5-HT7b receptors (Homo sapiens, UniProt P34969)
T1 construct: expressed in transfected cells; host or cells: HEK293
Assay: 5-HT7 competition radioligand binding assay ([3H]5-CT)
Settings: HEK293 cells overexpressing human 5-HT7b receptors, at least two independent experiments in triplicate
Description: Novel scaffold endowed with 5-HT7R activity was identified by screening of the in-house compound library in a single compound concentration of 1 µM in a competition radioligand binding assay using [^3H]5-CT and HEK293 cells overexpressing the human 5-HT7b receptors.

T1 sequence (P34969 1-432): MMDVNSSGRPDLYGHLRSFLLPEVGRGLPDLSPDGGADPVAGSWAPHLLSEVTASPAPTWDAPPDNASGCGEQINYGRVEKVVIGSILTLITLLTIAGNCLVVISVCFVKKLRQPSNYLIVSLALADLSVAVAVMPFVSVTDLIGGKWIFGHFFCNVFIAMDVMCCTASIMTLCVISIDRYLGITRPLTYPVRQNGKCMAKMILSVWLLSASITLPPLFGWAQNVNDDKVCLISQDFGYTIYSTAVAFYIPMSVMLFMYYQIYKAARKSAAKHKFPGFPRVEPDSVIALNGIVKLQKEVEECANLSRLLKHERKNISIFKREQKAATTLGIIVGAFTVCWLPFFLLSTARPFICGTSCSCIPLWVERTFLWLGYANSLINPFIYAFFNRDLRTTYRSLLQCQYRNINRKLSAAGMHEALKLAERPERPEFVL

Ki ± S.D. 5-HT7 binding affinity	Compound
no affinity	c1cc(-c2ccoc2)nc(N2CCCCC2)n1 [Compound 43, 4-(3-Furyl)-2-(piperidin-1-yl)pyrimidine]

Same assay, conditions: HEK293 cells overexpressing human 5-HT7b receptors, at least two independent experiments in triplicate, read-out: Ki ± S.D. 5-HT7 binding affinity

Ki	Compound
> 10000 nM	4-(3-Furyl)-2,4-bis(4-methylpiperazin-1-yl)pyrimidine [Compound 20]
9 ± 2 nM	c1cc(-c2ccoc2)nc(N2CCNCC2)n1 [Compound 1, 4-(3-Furyl)-2-(piperazin-1-yl)pyrimidine]
7.2 ± 1.4 nM	CN1CCN(c2nccc(-c3ccoc3)n2)CC1 [Compound 2, 4-(3-Furyl)-2-(4-methylpiperazin-1-yl)pyrimidine]
10 ± 1 nM	CCN1CCN(c2nccc(-c3ccoc3)n2)CC1 [Compound 3, 2-(4-Ethylpiperazin-1-yl)-4-(3-furyl)pyrimidine]
5.3 ± 0.9 nM	CCCN1CCN(c2nccc(-c3ccoc3)n2)CC1 [Compound 4, 4-(3-Furyl)-2-(4-propylpiperazin-1-yl)pyrimidine]
25 ± 3 nM	c1ccc(CN2CCN(c3nccc(-c4ccoc4)n3)CC2)cc1 [Compound 5, 2-(4-Benzylpiperazin-1-yl)-4-(3-furyl)pyrimidine]
1400 ± 173 nM	O=C(c1ccccc1)N1CCN(c2nccc(-c3ccoc3)n2)CC1 [Compound 6, 2-(4-Benzoylpiperazin-1-yl)-4-(3-furyl)pyrimidine]
1.6 ± 0.2 nM	c1ccc(CCCN2CCN(c3nccc(-c4ccoc4)n3)CC2)cc1 [Compound 7]
8.5 ± 1.1 nM	OCCN1CCN(c2nccc(-c3ccoc3)n2)CC1 [Compound 8, 2-[4-(2-Hydroxyethyl)piperazin-1-yl]-4-(3-furyl)pyrimidine]
8.9 ± 2.1 nM	CCOC(=O)CCN1CCN(c2nccc(-c3ccoc3)n2)CC1 [Compound 9, Ethyl 3-{4-{[4-(3-furyl)pyrimidin-2-yl]piperazin-1-yl}}propanoate]
1.4 ± 0.3 nM	CCOC(=O)CCCCCN1CCN(c2nccc(-c3ccoc3)n2)CC1 [Compound 10]
3.9 ± 0.7 nM	Cc1cc(-c2ccoc2)nc(N2CCN(C)CC2)n1 [Compound 11, 4-(3-Furyl)-6-methyl-2-(4-methylpiperazin-1-yl)pyrimidine]
3.3 ± 0.5 nM	CCCCCCc1cc(-c2ccoc2)nc(N2CCN(C)CC2)n1 [Compound 14, 4-(3-Furyl)-6-n-hexyl-2-(4-methylpiperazin-1-yl)pyrimidine]
2.7 ± 0.5 nM	CCC(C)c1cc(-c2ccoc2)nc(N2CCN(C)CC2)n1 (stereo not drawn) [Compound 15, 4-sec-Butyl-6-(3-furyl)-2-(4-methylpiperazin-1-yl)pyrimidine]
8.3 ± 1.7 nM	CN1CCN(c2nc(-c3ccoc3)cc(C(F)(F)F)n2)CC1 [Compound 16, 4-(3-Furyl)-2-(4-methylpiperazin-1-yl)-6-(trifluoromethyl)pyrimidine]
18 ± 3 nM	CN1CCN(c2nc(C#CC3=CCCCC3)cc(-c3ccoc3)n2)CC1 [Compound 17, 4-(Cyclohexenylethynyl)-6-(3-furyl)-2-(4-methylpiperazin-1-yl)pyrimidine]
22 ± 2 nM	CN1CCN(c2nc(-c3ccoc3)cc(-c3ccoc3)n2)CC1 [Compound 18, 4,6-Bis(3-furyl)-2-(4-methylpiperazin-1-yl)pyrimidine]
> 10000 nM	CN1CCN(c2nc(-c3ccoc3)cc(N(C)C)n2)CC1 [Compound 19, 4-Dimethylamino-6-(3-furyl)-2-(4-methylpiperazin-1-yl)pyrimidine]
1330 ± 232 nM	CCCc1cnc(N2CCN(C)CC2)nc1-c1ccoc1 [Compound 21, 4-(3-Furyl)-2-(4-methylpiperazino)-5-propylpyrimidine]

Ki	Compound
1250 ± 116 nM	CCCCc1nc(N2CCN(C)CC2)nc(-c2ccoc2)c1CCC [Compound 22, 4-n-Butyl-6-(3-furyl)-2-(4-methylpiperazino)-5-propylpyrimidine]
1920 ± 373 nM	Cc1occc1-c1ccnc(N2CCN(C)CC2)n1 [Compound 23, 4-(2-Methyl-3-furyl)-2-(4-methylpiperazin-1-yl)pyrimidine]
462 ± 54 nM	Cc1cc(-c2ccnc(N3CCN(C)CC3)n2)co1 [Compound 24, 4-(5-Methyl-3-furyl)-2-(4-methylpiperazin-1-yl)pyrimidine]
12 ± 2 nM	CCCCCCc1cc(-c2coc(C)c2)nc(N2CCN(C)CC2)n1 [Compound 25, 4-n-Hexyl-6-(5-methyl-3-furyl)-2-(4-methylpiperazin-1-yl)pyrimidine]
1020 ± 96 nM	CN1CCN(c2nccc(-c3ccco3)n2)CC1 [Compound 26, 4-(2-Furyl)-2-(4-methylpiperazin-1-yl)pyrimidine]
380 ± 44 nM	CCc1cc(-c2ccco2)nc(N2CCN(C)CC2)n1 [Compound 27, 4-Ethyl-6-(2-furyl)-2-(4-methylpiperazin-1-yl)pyrimidine]
450 ± 63 nM	CCCCc1cc(-c2ccco2)nc(N2CCN(C)CC2)n1 [Compound 28, 4-n-Butyl-6-(2-furyl)-2-(4-methylpiperazin-1-yl)pyrimidine]
4230 ± 680 nM	Cc1ccc(-c2ccnc(N3CCN(C)CC3)n2)o1 [Compound 29, 4-(5-Methyl-2-furyl)-2-(4-methylpiperazin-1-yl)pyrimidine]
83 ± 9 nM	CN1CCN(c2nccc(-c3ccsc3)n2)CC1 [Compound 30, 2-(Methylpiperazin-1-yl)-4-(3-thienyl)pyrimidine]
15 ± 3 nM	CCCCc1cc(-c2ccsc2)nc(N2CCN(C)CC2)n1 [Compound 31, 4-n-Butyl-2-(methylpiperazin-1-yl)-6-(3-thienyl)pyrimidine]
480 ± 65 nM	CN1CCN(c2nccc(-c3cccs3)n2)CC1 [Compound 32, 2-(Methylpiperazin-1-yl)-4-(2-thienyl)pyrimidine]
> 10000 nM	CN1CCN(c2nccc(-c3ccccc3O)n2)CC1 [Compound 33, 4-(2-Hydroxyphenyl)-2-(4-methylpiperazin-1-yl)pyrimidine]
> 10000 nM	CN1CCN(c2nccc(-c3cccc(O)c3)n2)CC1 [Compound 34, 4-(3-Hydroxyphenyl)-2-(4-methylpiperazin-1-yl)pyrimidine]
> 10000 nM	CN1CCN(c2nccc(-c3ccc(O)cc3)n2)CC1 [Compound 35, 4-(4-Hydroxyphenyl)-2-(4-methylpiperazin-1-yl)pyrimidine]
7460 ± 1230 nM	CN1CCN(c2nccc(-c3cc4ccccc4o3)n2)CC1 [Compound 36, 4-(Benzofuran-2-yl)-2-(4-methylpiperazin-1-yl)pyrimidine]
5280 ± 820 nM	CN1CCN(c2nccc(-c3cc4ccccc4s3)n2)CC1 [Compound 37, 4-(Benzothiophen-2-yl)-2-(4-methylpiperazin-1-yl)pyrimidine]
1530 ± 125 nM	CN1CCN(c2nccc(-c3cc4ccccc4n3C)n2)CC1 [Compound 38, 4-(1-Methylindol-2-yl)-2-(4-methylpiperazin-1-yl)pyrimidine]
780 ± 94 nM	CN1CCN(c2nccc(-c3cccnc3)n2)CC1 [Compound 39, 2-(4-Methylpiperazin-1-yl)-4-(pyridin-3-yl)pyrimidine]
> 10000 nM	CN1CCN(c2nccc(-c3nccs3)n2)CC1 [Compound 40, 2-(4-Methylpiperazin-1-yl)-4-(thiazol-2-yl)pyrimidine]

Ki	Compound
1980 ± 275 nM	CN1CCN(c2nccc(-n3ccnc3)n2)CC1 [Compound 41, (1H-Imidazol-1-yl)-2-(4-methylpiperazin-1-yl)pyrimidine]
148 ± 17 nM	CN1CCCN(c2nccc(-c3ccoc3)n2)CC1 [Compound 42, 4-(3-Furyl)-2-(4-methylhomopiperazin-1-yl)pyrimidine]
> 10000 nM	c1cc(-c2ccoc2)nc(N2CCCCC2)n1 [Compound 43, 4-(3-Furyl)-2-(piperidin-1-yl)pyrimidine]
2460 ± 343 nM	c1cc(-c2ccoc2)nc(NCCN2CCOCC2)n1 [Compound 45, 4-(3-Furyl)-N-[2-(morpholin-4-yl)ethyl]pyrimidin-2-amine]
1280 ± 187 nM	c1cc(-c2ccoc2)nc(NCCCc2ncc[nH]2)n1 [Compound 46, 4-(3-Furyl)-N-[3-(1H-imidazol-2-yl)propyl]pyrimidin-2-amine]
299 ± 42 nM	c1cc(-c2ccoc2)nc(N2CC[N+]3(CCOCC3)CC2)n1 [Compound 47, 4-[4-(3-Furyl)pyrimidin-2-yl]piperazine-1-spiro-1-morpholinium iodide]
1910 ± 235 nM	CN1CCN(c2nc(-c3ccoc3)c3ccccc3n2)CC1 [Compound 48, 4-(3-Furyl)-2-(methylpiperazin-1-yl)quinazoline]
7540 ± 1140 nM	CN1CCN(c2nc(N3CCN(C)CC3)c3ccccc3n2)CC1 [Compound 49, 2,4-bis(4-Methylpiperazin-1-yl)quinazoline]
> 10000 nM	CN(C)CCc1nc(N2CCN(C)CC2)nc2ccccc12 [Compound 50]
17 ± 2 nM	CN1CCN(c2cc(-c3ccoc3)ccn2)CC1 [Compound 51, 4-(3-Furyl)-2-(4-methylpiperazin-1-yl)pyridine]
307 ± 42 nM	CN1CCN(c2cc(-c3ccco3)ccn2)CC1 [Compound 52, 4-(2-Furyl)-2-(4-methylpiperazin-1-yl)pyridine]
396 ± 55 nM	CN1CCN(c2cc(-c3cccs3)ccn2)CC1 [Compound 53, 2-(4-Methylpiperazin-1-yl)-4-(2-thienyl)pyridine]
8 ± 1 nM	Cc1cc(-c2ccoc2)cc(N2CCN(C)CC2)n1 [Compound 54, 4-(3-Furyl)-2-methyl-6-(4-methylpiperazin-1-yl)pyridine]
139 ± 22 nM	Cc1cc(-c2ccco2)cc(N2CCN(C)CC2)n1 [Compound 55, 4-(2-Furyl)-2-methyl-6-(4-methylpiperazin-1-yl)pyridine]
117 ± 12 nM	Cc1cc(-c2cccs2)cc(N2CCN(C)CC2)n1 [Compound 56, 2-Methyl-6-(4-methylpiperazin-1-yl)-4-(2-thienyl)pyridine]
8 nM and 11 nM	CN1CCN(c2cccc(-c3ccoc3)n2)CC1 [Compound 57, 6-(3-Furyl)-2-(4-methylpiperazin-1-yl)pyridine]
79 ± 14 nM	CN1CCN(c2cccc(-c3ccsc3)n2)CC1 [Compound 58, 2-(4-Methylpiperazin-1-yl)-6-(3-thienyl)pyridine]
1140 ± 154 nM	CN1CCN(c2cccc(-c3ccco3)n2)CC1 [Compound 59, 2-(2-Furyl)-6-(4-methylpiperazin-1-yl)pyridine]

Same assay, conditions: single compound concentration of 1 µM, HEK293 cells, read-out: inhibition in library screening

inhibition at 1 µM [%]	Compound
> 60	CN1CCN(c2nccc(-c3ccoc3)n2)CC1 [Compound 2, 4-(3-Furyl)-2-(4-methylpiperazin-1-yl)pyrimidine]
> 60	Cc1cc(-c2ccoc2)nc(N2CCN(C)CC2)n1 [Compound 11, 4-(3-Furyl)-6-methyl-2-(4-methylpiperazin-1-yl)pyrimidine]
> 60	CN1CCN(c2nc(-c3ccoc3)cc(-c3ccoc3)n2)CC1 [Compound 18, 4,6-Bis(3-furyl)-2-(4-methylpiperazin-1-yl)pyrimidine]
